The values that follow come from US8299052B2, “Pharmaceutical compositions and methods for improved bacterial eradication” (Shionogi Inc., priority 2006, dated 2012).

The test system of data set [1] is Streptococcus pyogenes. Particulars: Omnicef label, Tack et al, AAC 1998; cited from earlier work.
In data set [2] the test system is Streptococcus pyogenes. Put plainly: MIC-90 of penicillin VK for Streptococcus pyogenes. It is filed as cell-based. The note with it: where study did not report MIC, assumed equal to MIC determined in Applicants' Phase III trial. The text has this: The information in Table 1 was collected from several studies published in the literature. Information such as drug, regimen, Days Tx and Eradication can be taken directly from the literature articles. Information such as the MIC will often have been determined as part of the study and may be reported in the article, but in many cases it may not have been determined or reported.

In data set [3] the test system is Streptococcus pyogenes. Put plainly: Daily T>MIC and Total T>MIC calculated from pharmacokinetic model (WinNonlin) plasma profiles. The protocol: The Daily T>MIC must also be calculated for each different regimen, and at the relevant MIC. This information was not presented in any of the articles and so it was calculated by Applicants. The Daily T>MIC is calculated for each regimen by creating a plasma profile from pharmacokinetic data published in the literature. Prior to creating the plasma profile a pharmacokinetic model is developed from plasma profiles from one or more doses reported in the literature. […] The models are industry standard compartmental models, generated with WinNonlin, a common program used in the pharmaceutical industry for pharmacokinetic analysis and modeling. Once the Daily T>MIC for each regimen has been calculated, the Total T>MIC is calculated by multiplying the Daily T>MIC by the Duration of Therapy (Days Tx in the table). Thus a composite parameter, Total T>MIC, is constructed that includes both factors relevant to eradication of Streptococcus pyogenes by a given regimen. The equation can then be used to determine the Total T>MIC required to achieve eradication rates ≧85% (or any other desired eradication rate).

The test system of data set [4] is Streptococcus pyogenes. The note with it: cited from earlier work.

Each structure is given as a SMILES string. Values after ≈ are worked out from the molar mass of the structure shown. Where two headings read alike, the source gives them in different places. Marks after values point to notes of the source that are not given here.

Take `CC1(C)S[C@@H]2[C@H](NC(=O)COc3ccccc3)C(=O)N2[C@H]1C(=O)O` [Pen VK, penicillin VK]: the MIC-90 in the data set on Streptococcus pyogenes [1] is recorded as 0.03* μg/mL. Also, the MIC90 against Streptococcus pyogenes [2] was 0.015 µg/mL (≈ 0.0428 µM). Further, the “Daily T > MIC” value with Streptococcus pyogenes [3] (250 QID, MIC-90 0.015) is given as 55.30%; in the data set with Streptococcus pyogenes [3] (250 QID, MIC-90 0.03), 46.40%; in the data set with Streptococcus pyogenes [3] (250 TID, MIC-90 0.015) it was 39.29%; in the data set on Streptococcus pyogenes [3] (500 TID, MIC-90 0.015) it was 48.10%; in the data set with Streptococcus pyogenes [3] (600 TID, MIC-90 0.015) it was 49.80%; with Streptococcus pyogenes [3] (750 QD, MIC-90 0.015), 17.30%. Also, in the data set with Streptococcus pyogenes [3] (800 BID, MIC-90 0.015), the “Daily T > MIC” value is 35.00%. The “% Erad” value in the data set with Streptococcus pyogenes [4] (250 QID, Days Tx 10, MIC-90 0.03, Omnicef label, Tack et al, AAC 1998) is recorded as 82%; in the data set on Streptococcus pyogenes [4] (250 QID, Days Tx 10, McCarty 1993), 100%; in the data set on Streptococcus pyogenes [4] (250 QID, Days Tx 10, Mullen 992) it was 85.5%; with Streptococcus pyogenes [4] (250 TID, Days Tx 5, Gerber et al, AJDC 1987) it was 92%; with Streptococcus pyogenes [4] (250 TID, Days Tx 10, Gerber et al, AJDC 1987), 96%; with Streptococcus pyogenes [4] (500 TID, Days Tx 0 (spontaneous eradication), Zwart et al. BMJ 2000), 7%. Also, the “% Erad” value is given as 41% in the data set on Streptococcus pyogenes [4] (500 TID, Days Tx 3, Zwart et al, BMJ 2000); 72% in the data set on Streptococcus pyogenes [4] (500 TID, Days Tx 7, Zwart et al, BMJ 2000); 89% in the data set with Streptococcus pyogenes [4] (500 TID, Days Tx 10, Ketek SBA, Norrby et al, Scand J Infect Dis 2001); 86% in the data set with Streptococcus pyogenes [4] (600 TID, Days Tx 10, Carbon et al, J Antimicrob Chemother 1995); 82% in the data set on Streptococcus pyogenes [4] (750 QD, Days Tx 10, Gerber et al, AJDC 1989); 73% with Streptococcus pyogenes [4] (800 BID, Days Tx 5, Stromberg et al, Scand J Infect Dis 1988). Moreover, the “% Erad” value with Streptococcus pyogenes [4] (800 BID, Days Tx 10, Stromberg et al, Scand J Infect Dis 1988) is recorded as 94%.
